Drawing on ChEMBL document CHEMBL5226329, “Synthetic and computational efforts towards the development of peptidomimetics and small-molecule SARS-CoV 3CLpro inhibitors” (Bioorg Med Chem, 2021), this text covers Ki and IC50 for 8 molecules.

A short description of test [1]: Inhibition of Severe acute respiratory syndrome coronavirus proteinase 3C assessed as inhibition constant by spectrophotometry assay. On the set-up: species or system Severe acute respiratory syndrome-related coronavirus.
A short description of test [2]: Inhibition of recombinant Hepatitis A virus proteinase 3C using Ac-Leu-Ala-Ala-OH as a substrate expressed in Escherichia coli incubated for 15 mins by SDS-PAGE assay. On the set-up: species or system Hepatovirus A.
Test [3] is described as follows: Inhibition of Severe acute respiratory syndrome coronavirus proteinase 3C using Abz-SVTLQSG-Tyr(NO2)R peptide as a substrate. Further details: species or system Severe acute respiratory syndrome-related coronavirus.
A short description of test [4]: Inhibition of Severe acute respiratory syndrome coronavirus proteinase 3C using Dabcy-KTSAVLQSGFRKME-Edans peptide as a substrate. On the set-up: species or system Severe acute respiratory syndrome-related coronavirus.
The nature of test [5]: Inhibition of Severe acute respiratory syndrome coronavirus proteinase 3C using (Dabcyl-KTSAVLQSGFRKME-Edans peptide as a substrate assessed as inhibition constant by fluorescence based assay. On the set-up: species or system Severe acute respiratory syndrome-related coronavirus.
Test [6] can be described thus: Inhibition of Severe acute respiratory syndrome coronavirus proteinase 3C using (Dabcyl-KTSAVLQSGFRKME-Edans peptide as a substrate by fluorescence based assay. Further details: species or system Severe acute respiratory syndrome-related coronavirus.
A short description of test [7]: Inhibition of Severe acute respiratory syndrome coronavirus proteinase 3C by FRET assay. Further details: species or system Severe acute respiratory syndrome-related coronavirus.
Test [8] can be described thus: Inhibition of Severe acute respiratory syndrome coronavirus proteinase 3C using Dabcy-KTSAVLQSGFRKME-Edans peptide as a substrate incubated for 10 mins by fluorescence based assay. On the set-up: species or system Severe acute respiratory syndrome-related coronavirus.
Test [9] is described as follows: Inhibition of Severe acute respiratory syndrome coronavirus proteinase 3C using EDANS-Val-Asn-Ser-Thr-Leu-Gln-Ser-Gly-Leu-Arg-Lys-(Dabcyl)-Met substrate incubated for 1 hr by fluorescence based assay. On the set-up: species or system Severe acute respiratory syndrome-related coronavirus.

Where a SMILES comes first, the peptide text is derived from it. The star is where a group is joined. Cbz = O=C(OCc1ccccc1)*; CF3 = FC(F)(F)*

What is called Ki is a measure of affinity in units of concentration, obtained from inhibition or displacement. With `CC(C)C[C@H](NC(=O)[C@@H](NC(=O)OCc1ccccc1)C(C)C)C(=O)N[C@@H](CCC(=O)O)C(=O)C(F)(F)F` (Cbz-Val-Leu-Glu-CF3), the Ki in test [1] came out at 116000 nM.
As usually defined, the IC50 is the point on the concentration scale where inhibition reaches its midpoint. On to `CC(=O)N[C@@H](CC(C)C)C(=O)N[C@@H](C)C(=O)N[C@@H](C)C(=O)N[C@@H](CCC(=O)N(C)C)C(=O)Cn1[nH]c(=O)c2ccccc2c1=O`, for which, in [2], the IC50 is 13000 nM.
With `CC(=O)N[C@H](C(=O)N[C@H](C(=O)N[C@@H](CC(C)C)C(=O)N[C@@H](C[C@@H]1CCNC1=O)C(=O)Cn1[nH]c(=O)c2c([N+](=O)[O-])cccc2c1=O)C(C)OCc1ccccc1)C(C)C` (stereo not given in full), the IC50 in test [3] amounted to 600 nM.
Molecule `O=C[C@H](C[C@@H]1CCNC1=O)NC(=O)[C@H](Cc1ccccc1)NC(=O)/C=C/c1ccc(Cl)cc1F` yielded an IC50 in test [4] of 200 nM.
On to `CN(C)c1ccc(C(=O)N[C@@H](Cc2ccccc2)C(=O)Nc2ccc([N+](=O)[O-])cc2Cl)cc1`, for which the Ki in [5] was 30 nM. Besides, the IC50 in test [6] came to 60 nM.
With `O=C(/C=C/c1ccccc1)Nc1ccccc1SC(=O)/C=C/c1ccccc1`, the IC50 in test [7] and in test [8] was 1060 nM in each case.
For the molecule `CC(=O)N[C@@H](CC(C)C)C(=O)N[C@@H](C)C(=O)N[C@@H](C)C(=O)N[C@@H](C[C@@H]1CCNC1=O)C(=O)Cn1[nH]c(=O)c2c([N+](=O)[O-])cccc2c1=O`, in test [2], the IC50 was found to be 1600 nM.
For `CN(C)CCCSc1ccccc1NC(=O)/C=C/c1ccccc1` [CINANSERIN], the IC50 in [9] turned out to be 19000 nM.
